Laboratory results as given in patent publication US4562006A, “Cycloheptadiene derivatives” (Warner-Lambert Company, priority 1984, dated 1985).

Key:
leukotriene receptor = leukotriene receptor binding assay (RBL-1)
Description: The details of the human leukocyte lipoxygenase assay are described below. The soybean lipoxygenase radiochemical is described in Prostaglandins, Leukotrienes, and Medicine, 11, 373-80 (1983). The leukotriene receptor binding assay is described by R. F. Bruns, W. J. Thomsen, and T. A. Pugsley in Life Sciences, 33, 645 (1983).
The following tables illustrate the activity of certain representative compounds of the present invention. The RBL-1 column represent data from the leukotriene receptor binding assay and the LDA(U) column reports on the human leukoxyte lipoxygenase assay.

[1] = target: human leukocyte lipoxygenase; experiment: human leukocyte lipoxygenase assay (LDA); format: biochemical; details: LDA column
Method: An acetone-pentane powder of leukocyte and platelets was prepared from buffy coat obtained from the Michigan Red Cross and Michigan Department of Health in Lansing, Michigan, and was suspended in 5-7 volumes of cold 0.1M tris buffer, pH 7.4 containing 0.154 M NaCl. The suspension was centrifuged at 13,300 g for ten minutes at 4° C. The resultant pellet was retained, resuspended in five volumes of cold acetone, recentrifuged at 13,300 g and resuspended in five volumes of cold pentane. The pentane suspension was centrifuged for ten minutes at 13,300 g to give a pellet which was dried in the cold under vacuum with periodic pulverization. The dry powder is stable for several weeks when stored at -80° C.
This was prepared in the following manner. About 15 mg of the acetone-pentane powder is suspended in 4 ml of cold tris buffer (0.1M, pH 7.4), allowed to stand for five minutes and homogenized thoroughly. The homogenate is sonicated three times for 15 seconds each time, diluted to 7 ml with cold tris buffer (0.1M, pH 7.4) and centrifuged at 4° for 60 minutes at 13,300 g. The supernatant is retained and diluted to a total of 10 ml with cold tris buffer (0.1M, pH 7.4) to give the stock enzyme solution. […]
The enzyme reaction is followed spectrophotometrically by the appearance of a conjugated diene product at 234 nm. The reaction is monitored at 24° using a Gilford Model 2500 spectrophotometer. […]

SMILES | IC50 (leukotriene receptor) | IC50 [1]
CCCCCCCC1C=CCC=CC1/C=C\CCCC(=O)O (stereo not shown) [Example 6, 5-Hexenoic acid, 6-(7-heptyl-2,5-cycloheptadien-1-yl)-] | 23.9 µM | 
CCCCC/C=C\C1C=CCC=CC1CCCCCC(=O)O (stereo not shown) [Example 12, 2,5-Cycloheptadiene-1-hexanoic acid, 7-(1-heptenyl)-(Z)-] | 26.4 µM | 0.74 µM
CCCCC/C=C\C=C\C1CC1/C=C\CCCC(=O)O (stereo not shown) [Example 13, 6-[2-(1,3-nonadienyl)cyclopropyl]-5-hexenoic acid (Z,E,Z)] | 26.4 µM | 
CCCCC/C=C\C1C=CCC=CC1CCCC(=O)O (stereo not shown) [Example 14, 2,5-cycloheptadiene-1-butanoic acid, 7-(1-heptenyl)-, (Z)-] | 53.4 µM | 

Stronger by IC50 (leukotriene receptor), values ahead:

IC50 (leukotriene receptor) | IC50 [1] | SMILES
10.3 µM |  | CCCCC/C=C\C=C\C1CC1/C=C\CCCCCC(=O)O (stereo not shown) [Example 11, 7-Octenoic acid, 8-[2-(1,3-nonadienyl)cyclopropyl]-, (Z,E,Z)]
17.1 µM |  | CCCCC/C=C\C1C=CCCC=C1/C=C\CCCC(=O)O (stereo not shown) [Example 18, 5-Hexenoic acid, 6-[7-(1-heptenyl)-1,5-cycloheptadien-1-yl]-]
